{"source": "paper PMC6472409", "about": "“Dishevelled-3 conformation dynamics analyzed by FRET-based biosensors reveals a key role of casein kinase 1” (Nature Communications, 2019)", "assay_type_in_all_cases": "binding", "key": {"[1]": {"target": "T1, PDZ (S286E/S329E) from DVL2 (Homo sapiens, UniProt O14641, S286E/S329E)", "T1 construct": "The PDZ domain of human DVL2 wild type (aa 265–361) and phosphorylation-mimicking variant S286E + S329E; His6-tag (N, cleaved yes); lipoyl domain (N, cleaved yes); made in house; host or cells: E. coli BL21 (DE3)", "T1 sequence (O14641 265-361 S286E/S329E)": "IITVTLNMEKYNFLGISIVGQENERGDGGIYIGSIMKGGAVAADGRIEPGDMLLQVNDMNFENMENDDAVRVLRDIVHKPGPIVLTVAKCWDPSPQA", "assay": "Surface plasmon resonance, PDZ phosphorylation-mimicking variant", "details": "for Response (R.U.): SPR, equilibrium", "procedure": "(§1) The PDZ domain of human DVL2 wild type (aa 265–361) and phosphorylation-mimicking variant S286E + S329E were cloned into pET vector containing an N-terminal His6-tag and a lipoyl domain separated by a Tobacco Etch Virus (TEV) protease digestion site from the N-terminus of the inserts. Both proteins were expressed at high yields in E. coli BL21 (DE3) strain (New England Biolabs, #C2527I). For the NMR studies, ^13C- and ^15N-labeled proteins were prepared by growing cells in minimal medium supplemented with ^15NH4Cl (1 g/l) and ^13C6 glucose (2 g/l) as the sole nitrogen and carbon sources, respectively. Cells were grown at 37 °C to an OD600 of approximately 0.8 and protein expression was induced with 0.5 mM IPTG. Cells were lysed by sonication and centrifuged at 15,000g. Three purification steps were used for both proteins: Ni-NTA chromatography followed by overnight TEV cleavage to remove the N-terminal His6-tag and the lipoyl domain, ion exchange chromatography, and size exclusion chromatography. Finally, the untagged PDZ domain wild type or phosphorylation-mimicking variant was concentrated and exchanged to buffer for NMR or binding experiments containing 20 mM HEPES (pH 6.8) and 50 mM KCl. Human CK1ε (aa 1–294) was also cloned into a pET vector and purified using three purification steps as described for the PDZ domain.\n(§2) SPR experiments were performed on a Biacore T200 instrument (GE Healthare). The wild type and phosphorylation-mimicking variant of PDZ from DVL2 were immobilized on carboxy-methylated dextran matrix (CM5 chip S Series) using amino coupling. Non-reacted groups were blocked by 1 M ethanolamine. […] The C-terminal DVL peptide (aa 698–716 from DVL3; pS700) was injected at increasing concentrations and long enough to reach steady state. SPR responses were measured and corrected for the response of the blank. Data points were collected from each binding sensogram before the end of the injection (equilibrium) and the dissociation constants were estimated by fitting the response at equilibrium versus the C-terminal peptide concentration using the following equation: Req = C*Rmax/(KD + C), where Req is the binding level in Response Units at different C-terminal peptide concentrations (C), Rmax the response at saturation (fitted), and KD the apparent dissociation constant (fitted)."}, "[2]": {"target": "T2, PDZ domain of human DVL2 wild type (aa 265–361) (Homo sapiens, UniProt O14641)", "T2 construct": "The PDZ domain of human DVL2 wild type (aa 265–361); His6-tag (N, cleaved yes); lipoyl domain (N, cleaved yes); made in house; host or cells: E. coli BL21 (DE3)", "T2 sequence (O14641 265-361)": "T1 sequence (O14641 265-361 S286E/S329E) with E22S, E65S", "assay": "NMR titration with DVL C-terminal peptide, PDZ wild type", "procedure": "as §1\n(§3) A 4D HC(CC-TOCSY(CO))NH and a 4D ^13C, ^15N edited HMQC-NOESY-HSQC experiments were recorded at CEITEC Josef Dadok National NMR Centre on a 700 MHz Bruker Avance III spectrometers equipped with ^1H/^13C/^15N TCI cryogenic probe head with z-axis gradients. 4D spectra were processed with SSA package[59] and analyzed with SPARKY. Chemical shift assignments were obtained automatically using 4D-CHAINS[60] and checked manually. NMR titrations were performed in series of ^1H, ^15N HSQC spectra using 100 μM of ^15N-labeled protein (wild type or phosphorylation-mimicking variant) and increasing amounts of C-terminal DVL peptide (pS700) consisted of aa 698–716 from DVL3 (stock concentration of 800 μM). Steady-state^15N-^1H Nuclear Overhauser Effect values were measured under a steady-state condition with a 30 s interscan relaxation delay. Reference spectra and the spectra measured under steady-state conditions were measured in an interleaved manner."}, "[3]": {"target": "T3, PDZ (S286E/S329E) of human DVL2 (Homo sapiens, UniProt O14641, S286E/S329E)", "T3 construct": "The PDZ domain of human DVL2 wild type (aa 265–361) and phosphorylation-mimicking variant S286E + S329E; His6-tag (N, cleaved yes); lipoyl domain (N, cleaved yes); made in house; host or cells: E. coli BL21 (DE3)", "T3 sequence (O14641 265-361 S286E/S329E)": "T1 sequence (O14641 265-361 S286E/S329E)", "assay": "NMR titration with DVL C-terminal peptide, PDZ phosphorylation-mimicking variant", "procedure": "as §1, §3"}, "PDZ wild type from DVL2": {"target": "T4, PDZ wild type from DVL2 (Homo sapiens, UniProt O14641)", "T4 construct": "The PDZ domain of human DVL2 wild type (aa 265–361); His6-tag (N, cleaved yes); lipoyl domain (N, cleaved yes); made in house; host or cells: E. coli BL21 (DE3)", "T4 sequence (O14641 265-361)": "T1 sequence (O14641 265-361 S286E/S329E) with E22S, E65S", "assay": "Surface plasmon resonance, PDZ wild type", "details": "for Response (R.U.): SPR, equilibrium", "procedure": "as §1, §2"}, "[4]": {"details": "Biacore T200, PDZ immobilized on CM5 chip, steady-state fit, read-out: apparent KD (SPR, one-site binding model)"}}, "note": "Residue numbers refer to the chain shown, from its start. Where a SMILES comes first, the peptide text is derived from it. [ ]: non-standard residue; d: D form. pS = N[C@@H](COP(=O)(O)O)C(=O)O"}
{"smiles": "CSCC[C@H](NC(=O)[C@@H](NC(=O)[C@H](CC(=O)O)NC(=O)[C@@H](NC(=O)[C@H](Cc1ccccc1)NC(=O)[C@H](Cc1ccccc1)NC(=O)[C@H](CCC(=O)O)NC(=O)[C@H](CO)NC(=O)[C@@H]1CCCN1C(=O)[C@H](CC(N)=O)NC(=O)CNC(=O)[C@H](CCSC)NC(=O)[C@H](C)NC(=O)[C@H](CCSC)NC(=O)[C@H](CCCNC(=N)N)NC(=O)[C@H](Cc1ccccc1)NC(=O)[C@H](COP(=O)(O)O)NC(=O)[C@H](CCC(N)=O)NC(=O)[C@@H](N)CCCNC(=N)N)C(C)C)C(C)C)C(=O)O", "note": "[DVL C-terminal peptide] (H-RQ[pS]FRMAMGNPSEFFVDVM-OH)", "values": [{"measurement": "Kd", "setting": "[1]; [4]", "value": 754, "unit": "µM"}, {"measurement": "Response (R.U.)", "setting": "[1]; pFRMA 3.125 uM", "value": 1.637, "unit": "R.U."}, {"measurement": "Response (R.U.)", "setting": "[1]; pFRMA 6.25 uM", "value": 1.9305, "unit": "R.U."}, {"measurement": "Response (R.U.)", "setting": "[1]; pFRMA 12.5 uM", "value": 2.181, "unit": "R.U."}, {"measurement": "Response (R.U.)", "setting": "[1]; pFRMA 25 uM", "value": 2.621, "unit": "R.U."}, {"measurement": "Response (R.U.)", "setting": "[1]; pFRMA 50 uM", "value": 3.732, "unit": "R.U."}, {"measurement": "Response (R.U.)", "setting": "[1]; pFRMA 100 uM", "value": 5.135, "unit": "R.U."}, {"measurement": "Response (R.U.)", "setting": "[1]; pFRMA 200 uM", "value": 8.677, "unit": "R.U."}, {"measurement": "Response (R.U.)", "setting": "[1]; pFRMA 400 uM", "value": 16.554, "unit": "R.U."}, {"measurement": "peptide affinity of phosphorylation-mimicking variant compared with PDZ wt (SPR)", "setting": "[1]; apparent dissociation constants from SPR", "value": "two-fold lower peptide affinity"}, {"measurement": "Δδ (p.p.m.) F277", "setting": "[2]; pFRMA 50 uM", "value": 0.028, "unit": "p.p.m."}, {"measurement": "Δδ (p.p.m.) H342", "setting": "[2]; pFRMA 50 uM", "value": 0.043, "unit": "p.p.m."}, {"measurement": "Δδ (p.p.m.) K301", "setting": "[2]; pFRMA 50 uM", "value": 0.035, "unit": "p.p.m."}, {"measurement": "Δδ (p.p.m.) F277", "setting": "[2]; pFRMA 100 uM", "value": 0.046, "unit": "p.p.m."}, {"measurement": "Δδ (p.p.m.) H342", "setting": "[2]; pFRMA 100 uM", "value": 0.07, "unit": "p.p.m."}, {"measurement": "Δδ (p.p.m.) K301", "setting": "[2]; pFRMA 100 uM", "value": 0.06, "unit": "p.p.m."}, {"measurement": "Δδ (p.p.m.) F277", "setting": "[2]; pFRMA 200 uM", "value": 0.066, "unit": "p.p.m."}, {"measurement": "Δδ (p.p.m.) H342", "setting": "[2]; pFRMA 200 uM", "value": 0.109, "unit": "p.p.m."}, {"measurement": "Δδ (p.p.m.) K301", "setting": "[2]; pFRMA 200 uM", "value": 0.092, "unit": "p.p.m."}, {"measurement": "Δδ (p.p.m.) F277", "setting": "[2]; pFRMA 400 uM", "value": 0.112, "unit": "p.p.m."}, {"measurement": "Δδ (p.p.m.) H342", "setting": "[2]; pFRMA 400 uM", "value": 0.174, "unit": "p.p.m."}, {"measurement": "Δδ (p.p.m.) K301", "setting": "[2]; pFRMA 400 uM", "value": 0.148, "unit": "p.p.m."}, {"measurement": "affinity of phosphorylation-mimicking variant compared with PDZ wt (NMR)", "setting": "[3]; fast exchange peaks, quantitative analysis", "value": "two-fold weaker affinity"}, {"measurement": "Δδ (p.p.m.) F277", "setting": "[3]; pFRMA 50 uM", "value": 0.02, "unit": "p.p.m."}, {"measurement": "Δδ (p.p.m.) H342", "setting": "[3]; pFRMA 50 uM", "value": 0.032, "unit": "p.p.m."}, {"measurement": "Δδ (p.p.m.) K301", "setting": "[3]; pFRMA 50 uM", "value": 0.026, "unit": "p.p.m."}, {"measurement": "Δδ (p.p.m.) F277", "setting": "[3]; pFRMA 100 uM", "value": 0.03, "unit": "p.p.m."}, {"measurement": "Δδ (p.p.m.) H342", "setting": "[3]; pFRMA 100 uM", "value": 0.056, "unit": "p.p.m."}, {"measurement": "Δδ (p.p.m.) K301", "setting": "[3]; pFRMA 100 uM", "value": 0.044, "unit": "p.p.m."}, {"measurement": "Δδ (p.p.m.) F277", "setting": "[3]; pFRMA 200 uM", "value": 0.048, "unit": "p.p.m."}, {"measurement": "Δδ (p.p.m.) H342", "setting": "[3]; pFRMA 200 uM", "value": 0.093, "unit": "p.p.m."}, {"measurement": "Δδ (p.p.m.) K301", "setting": "[3]; pFRMA 200 uM", "value": 0.071, "unit": "p.p.m."}, {"measurement": "Δδ (p.p.m.) F277", "setting": "[3]; pFRMA 400 uM", "value": 0.084, "unit": "p.p.m."}, {"measurement": "Δδ (p.p.m.) H342", "setting": "[3]; pFRMA 400 uM", "value": 0.164, "unit": "p.p.m."}, {"measurement": "Δδ (p.p.m.) K301", "setting": "[3]; pFRMA 400 uM", "value": 0.128, "unit": "p.p.m."}, {"measurement": "Kd", "setting": "PDZ wild type from DVL2; [4]", "value": 305, "unit": "µM"}, {"measurement": "Response (R.U.)", "setting": "PDZ wild type from DVL2; pFRMA 3.125 uM", "value": 3.399, "unit": "R.U."}, {"measurement": "Response (R.U.)", "setting": "PDZ wild type from DVL2; pFRMA 6.25 uM", "value": 3.725, "unit": "R.U."}, {"measurement": "Response (R.U.)", "setting": "PDZ wild type from DVL2; pFRMA 12.5 uM", "value": 4.287, "unit": "R.U."}, {"measurement": "Response (R.U.)", "setting": "PDZ wild type from DVL2; pFRMA 25 uM", "value": 4.98, "unit": "R.U."}, {"measurement": "Response (R.U.)", "setting": "PDZ wild type from DVL2; pFRMA 50 uM", "value": 6.694, "unit": "R.U."}, {"measurement": "Response (R.U.)", "setting": "PDZ wild type from DVL2; pFRMA 100 uM", "value": 9.137, "unit": "R.U."}, {"measurement": "Response (R.U.)", "setting": "PDZ wild type from DVL2; pFRMA 200 uM", "value": 14.3144, "unit": "R.U."}, {"measurement": "Response (R.U.)", "setting": "PDZ wild type from DVL2; pFRMA 400 uM", "value": 24.5768, "unit": "R.U."}]}
